Assay results reported in ChEMBL document CHEMBL4811240, “Discovery of N-substituted sulfamoylbenzamide derivatives as novel inhibitors of STAT3 signaling pathway based on Niclosamide” (Eur J Med Chem, 2021).

How the values were obtained:
SW480 [1] = experiment: Antiproliferative activity against human SW480 cells assessed as inhibition of cell viability at 10 uM after 48 hrs by MTT assay relative to control; type: functional
MDA-MB-231 [2] = experiment: Antiproliferative activity against human MDA-MB-231 cells assessed as inhibition of cell viability at 10 uM after 48 hrs by MTT assay relative to control; type: functional
L3.6pl = experiment: Antiproliferative activity against human L3.6 cells assessed as inhibition of cell viability at 10 uM after 48 hrs by MTT assay relative to control; type: functional
HCT-116 [3] = experiment: Antiproliferative activity against human HCT116 cells assessed as inhibition of cell viability at 10 uM after 48 hrs by MTT assay relative to control; type: functional
MDA-MB-231 [4] = experiment: Antiproliferative activity against human MDA-MB-231 cells assessed as inhibition of cell viability after 48 hrs by MTT assay; type: functional, cell-based; conditions: MDA-MB-231, 48 h
HCT-116 [5] = experiment: Antiproliferative activity against human HCT-116 cells assessed as inhibition of cell viability after 48 hrs by MTT assay; type: functional, cell-based; conditions: HCT-116, 48 h
[6] = Lipophilicity, log P of the compound; type: physicochemical; conditions: octanol/water
SW480 [7] = experiment: Antiproliferative activity against human SW480 cells assessed as inhibition of cell viability after 48 hrs by MTT assay; type: functional, cell-based; conditions: SW480, 48 h

| SMILES | inhibition at 10 µM (SW480 [1]) | inhibition at 10 µM (MDA-MB-231 [2]) | inhibition at 10 µM (L3.6pl) | inhibition at 10 µM (HCT-116 [3]) | IC50 (MDA-MB-231 [4]) | IC50 (HCT-116 [5]) | logP [6] | IC50 (SW480 [7]) |
| --- | --- | --- | --- | --- | --- | --- | --- | --- |
| NS(=O)(=O)c1cc(C(=O)Nc2ccc(F)c(Cl)c2)ccc1Cl | 49.1% | 41.5% | 30.2% | 47.5% |  |  |  |  |
| COc1ccccc1CNC(=O)c1ccc(Cl)c(S(N)(=O)=O)c1 | 42.8% | 35% | 17.3% | 50% | > 20 µM | > 20 µM | 1.77 | > 20 µM |
| COc1cc(CNC(=O)c2ccc(Cl)c(S(N)(=O)=O)c2)cc(OC)c1OC | 27.4% | 44.4% | 38.2% | 34.3% |  |  |  |  |
| COc1cc(NC(=O)c2cccc(S(N)(=O)=O)c2)cc(OC)c1 | 40.4% | 39.6% | 22.2% | 47.1% |  |  |  |  |
| NS(=O)(=O)c1cc(C(=O)Nc2c(F)c(F)c(F)c(F)c2F)ccc1Cl | 27.1% | 33.1% | 12.6% | 34% |  |  |  |  |
| CC(C)(C)OC(=O)c1ccc(NC(=O)c2cccc(S(N)(=O)=O)c2)cc1 | 55.4% | 91.1% | 31.2% | 79.3% | 0.7 µM | 9.82 µM | 1.54 |  |
| COc1ccc(C(=O)NS(=O)(=O)c2cc(C(=O)Nc3cc(OC)c(OC)c(OC)c3)ccc2Cl)cc1 | 20.1% | 13.1% | 18.3% | 4.8% |  |  |  |  |
| COc1ccccc1C(=O)NS(=O)(=O)c1cc(C(=O)Nc2cc(OC)c(OC)c(OC)c2)ccc1Cl | 33.9% | 13.1% | -18.3% | 16.2% |  |  |  |  |
| COc1cccc(CNC(=O)c2ccc(Cl)c(S(N)(=O)=O)c2)c1 | 37.7% | 36.3% | 19.4% | 64.2% | > 20 µM | 18.6 µM | 1.34 | > 20 µM |
| COc1cc(NC(=O)c2ccc(Cl)c(S(=O)(=O)NC(=O)c3cccc([N+](=O)[O-])c3)c2)cc(OC)c1OC | 12.1% | 14.3% | -6.13% | 3.74% |  |  |  |  |
| NS(=O)(=O)c1cc(C(=O)Nc2cccc(C(F)(F)F)c2)ccc1Cl | 42.9% | 29% | 22.3% | 41.4% |  |  |  |  |
| COc1cccc(NC(=O)c2cccc(S(N)(=O)=O)c2)c1 | 28.3% | 57.6% | 15.2% | 51.4% | 13.6 µM | 11.2 µM | 0.96 | > 20 µM |
| COc1cc(OC)cc(C(=O)NS(=O)(=O)c2cc(C(=O)Nc3cc(OC)c(OC)c(OC)c3)ccc2Cl)c1 | 16.1% | 4.11% | -13.1% | -2.37% |  |  |  |  |
| NC(N)=NS(=O)(=O)c1ccc(NC(=O)c2ccc(Cl)c(S(N)(=O)=O)c2)cc1 | 27.3% | 46.4% | 11.1% | 41.3% |  |  |  |  |
| NS(=O)(=O)c1cccc(C(=O)Nc2ccc([N+](=O)[O-])cc2Cl)c1 | 44.1% | 43.2% | 21.3% | 15.1% |  |  |  |  |
| NS(=O)(=O)c1cc(C(=O)Nc2ccc([N+](=O)[O-])cc2Cl)ccc1Cl | 38.2% | 56.3% | 12.3% | 49.5% | 14.3 µM | 19.1 µM | 2.73 | > 20 µM |
| CN1CCN(c2ccc(NC(=O)c3ccc(Cl)c(S(N)(=O)=O)c3)cc2)CC1 | 38.3% | 37.3% | 14.6% | 40.5% |  |  |  |  |
| COc1cccc(NC(=O)c2ccc(Cl)c(S(N)(=O)=O)c2)c1 | 29.3% | 42.4% | 22.3% | 43% |  |  |  |  |
| COc1ccccc1NC(=O)c1cccc(S(N)(=O)=O)c1 | 18.2% | 27.1% | 9.7% | 40.3% |  |  |  |  |
| COc1ccc(OC)c(NC(=O)c2cccc(S(N)(=O)=O)c2)c1 | 31.9% | 37% | 20.5% | 46.4% |  |  |  |  |
| COc1cc(NC(=O)c2ccc(Cl)c(S(N)(=O)=O)c2)c(C(=O)O)cc1OC | 30.2% | 66.7% | 11.8% | 47.2% |  |  |  |  |
| COc1cc(NC(=O)c2ccc(Cl)c(S(=O)(=O)NC(=O)c3c(OC)cccc3OC)c2)cc(OC)c1OC | 30.6% | 18.1% | 4.06% | 10.2% |  |  |  |  |
| NS(=O)(=O)c1cc(C(=O)Nc2ccc(N3CCOCC3)cc2)ccc1Cl | 21.9% | 43.3% | 12.2% | 39.3% |  |  |  |  |

| SMILES | inhibition at 10 µM (SW480 [1]) | inhibition at 10 µM (MDA-MB-231 [2]) | inhibition at 10 µM (L3.6pl) | inhibition at 10 µM (HCT-116 [3]) | IC50 (MDA-MB-231 [4]) | IC50 (HCT-116 [5]) | logP [6] | IC50 (SW480 [7]) |
| --- | --- | --- | --- | --- | --- | --- | --- | --- |
| NS(=O)(=O)c1cccc(C(=O)Nc2ccccc2C(F)(F)F)c1 | 24.8% | 42.8% | 21.9% | 40.3% |  |  |  |  |
| COc1cc(NC(=O)c2ccc(Cl)c(S(N)(=O)=O)c2)cc(OC)c1 | 27.2% | 31.8% | 26.3% | 42.5% |  |  |  |  |
| COc1ccc(NC(=O)c2ccc(Cl)c(S(N)(=O)=O)c2)cc1 | 31.9% | 30.9% | 22.8% | 20.2% |  |  |  |  |
| NS(=O)(=O)c1cccc(C(=O)Nc2ccc(C(F)(F)F)cc2)c1 | 38.1% | 26.4% | 18.1% | 19.1% |  |  |  |  |
| CCC(=O)NS(=O)(=O)c1cc(C(=O)Nc2cc(OC)c(OC)c(OC)c2)ccc1Cl | 21.3% | 19.6% | 1.47% | 27.2% |  |  |  |  |
| COc1cc(NC(=O)c2ccc(Cl)c(S(=O)(=O)NC(=O)c3ccc(Cl)nc3)c2)cc(OC)c1OC | 8.11% | 5.01% | -15.7% | -9.17% |  |  |  |  |
| COc1cc(NC(=O)c2ccc(Cl)c(S(=O)(=O)NC(=O)C=C(C)C)c2)cc(OC)c1OC | 22.6% | 22.3% | -7.12% | 20.1% |  |  |  |  |
| COc1cc(NC(=O)c2ccc(Cl)c(S(=O)(=O)NC(=O)c3ccccc3)c2)cc(OC)c1OC | 29.5% | 2.05% | -27.8% | 32.3% |  |  |  |  |
| NS(=O)(=O)c1cc(C(=O)Nc2ccc(Cl)c(F)c2)ccc1Cl | 48.1% | 43.7% | 26.4% | 44.1% |  |  |  |  |
| C=C(C)C(=O)NS(=O)(=O)c1cc(C(=O)Nc2cc(OC)c(OC)c(OC)c2)ccc1Cl | 22.3% | 4.84% | -11.3% | 30% |  |  |  |  |
| NS(=O)(=O)c1cccc(C(=O)Nc2cccnc2)c1 | 28.3% | 42.9% | 32.7% | 8.11% |  |  |  |  |
| NS(=O)(=O)c1ccc(O)c(C(=O)Nc2ccc([N+](=O)[O-])cc2Cl)c1 | -8.3% | 48.2% | 44.7% | 64% |  |  |  |  |
| COc1ccccc1NC(=O)c1ccc(Cl)c(S(N)(=O)=O)c1 | 49.3% | 19.8% | 22.9% | 37.3% |  |  |  |  |
| C/C=C/C(=O)NS(=O)(=O)c1cc(C(=O)Nc2cc(OC)c(OC)c(OC)c2)ccc1Cl | 24.6% | 18.4% | 11.7% | 29.3% |  |  |  |  |
| COc1cccc(C(=O)NS(=O)(=O)c2cc(C(=O)Nc3cc(OC)c(OC)c(OC)c3)ccc2Cl)c1 | 22% | 23.5% | -0.51% | 21.3% |  |  |  |  |
| NS(=O)(=O)c1cccc(C(=O)Nc2cccc(C(F)(F)F)c2)c1 | 34.4% | 27.2% | 9.27% | 39.7% |  |  |  |  |
| COc1cc(NC(=O)c2ccc(Cl)c(S(=O)(=O)NC(C)=O)c2)cc(OC)c1OC | 19.5% | 19.4% | -15.2% | 27.2% |  |  |  |  |
| COc1ccc(CNC(=O)c2ccc(Cl)c(S(N)(=O)=O)c2)cc1 | 16.2% | 54% | 29% | 43.1% |  |  |  |  |
| COc1ccc(NC(=O)c2cccc(S(N)(=O)=O)c2)cc1 | 38.4% | 32.3% | 23.9% | 42.7% |  |  |  |  |
| COc1ccc(OC)c(NC(=O)c2ccc(Cl)c(S(N)(=O)=O)c2)c1 | 23.2% | 26.7% | 24.2% | 28.2% |  |  |  |  |
| C=CC(=O)NS(=O)(=O)c1cc(C(=O)Nc2cc(OC)c(OC)c(OC)c2)ccc1Cl | 28.9% | 2.82% | -12.9% | 24.2% |  |  |  |  |
| NS(=O)(=O)c1cc(C(=O)Nc2ccccc2C(F)(F)F)ccc1Cl | 30.7% | 44.9% | 21.2% | 45.4% |  |  |  |  |
| COc1cc(NC(=O)c2ccc(Cl)c(S(N)(=O)=O)c2)cc(OC)c1OC | 82.2% | 93.3% | 42.1% | 87.9% |  |  |  |  |
